Data taken from patent publication US9145391B2, “Bipyridylaminopyridines as Syk inhibitors” (Merck Sharp & Dohme Corp., priority 2011, dated 2015).

Target: recombinant human GST-Syk (Homo sapiens (Human), UniProt P43405)
Assay: Homogeneous Time-Resolved Fluorescence (HTRF) assay for the recombinant human Syk enzyme
Format: biochemical
Conditions: recombinant human GST-Syk 5 pM, ATP 25 μM, read-out: rhSyk IC50
Description: Syk inhibition may be determined using the following assay protocol: Homogeneous Time-Resolved Fluorescence (HTRF) Assay for the Recombinant Human Syk Enzyme: A recombinant GST-hSyk fusion protein was used to measure potency of compounds to inhibit human Syk activity. […] To initiate the reaction the biotinylated substrate peptide (250 nM final concentration) that contains the phosphorylation site for Syk was added with magnesium (5 mM final concentration) and ATP (25 μM final concentration). […] Final volume of the quenching solution was 10 μL.

| Compound | IC50 [nM] |
| --- | --- |
| Cc1cc(Nc2cc(C(F)F)ccn2)nc(-c2ccc(C(C)(O)[C@H]3CC[C@H](C(=O)OC(C)OC(=O)C(C)C)CC3)nc2)c1 (single isomer, unassigned) [Example 21-4, 1-[(2-methylpropanoyl)oxy]ethyl trans-4-[(1R or 1S)-1-(6-{[4-(difluoromethyl)pyridin-2-yl]amino}-4-methyl-2,3′-bipyridin-6′-yl)-1-hydroxyethyl] cyclohexanecarboxylate] | 23 |
| Cc1cc(Nc2cc(C(F)(F)F)ccn2)nc(-c2ccc(NC3CCN(C(=O)c4ccc(C(F)(F)F)cc4)CC3)nc2)c1 [Example 4-72] | 56 |
| Cc1cc(Nc2cc(C(F)(F)F)ccn2)nc(-c2ccc(NC3CCN(C(=O)c4cccc5ncccc45)CC3)nc2)c1 [Example 4-13] | 9 |
| CCCCCCOC(=O)[C@H]1CC[C@H](C(C)(O)c2ccc(-c3cc(C)cc(Nc4cc(C(F)F)ccn4)n3)cn2)CC1 (single isomer, unassigned) [Example 19-9, hexyl trans-4-[(1R or 1S)-1-(6-{[4-(difluoromethyl)pyridin-2-yl]amino}-4-methyl-2,3′-bipyridin-6′-yl)-1-hydroxyethyl] cyclohexanecarboxylate] | 190 |
| CCOC(=O)OC(C)OC(=O)[C@H]1CC[C@H](C(C)(O)c2ccc(-c3cc(C)cc(Nc4cc(C(F)F)ccn4)n3)cn2)CC1 (single isomer, unassigned) [Example 20-6, 1-[(ethoxycarbonyl)oxy]ethyl trans-4-[(1R or 1S)-1-(6-{[4-(difluoromethyl)pyridin-2-yl]amino}-4-methyl-2,3′-bipyridin-6′-yl)-1-hydroxyethyl] cyclohexanecarboxylate] | 21 |
| Cc1cc(Nc2cc(C(F)(F)F)ccn2)nc(-c2ccc(NC3CCN(C(=O)c4ccc5sc(C)nc5c4)CC3)nc2)c1 [Example 4-14] | 6 |
| Cc1cc(Nc2cc(C(F)(F)F)ccn2)nc(-c2ccc(NC3CCN(C(=O)c4ccc5cc[nH]c5c4)CC3)nc2)c1 [Example 4-15] | 7 |
| Cc1cc(Nc2cc(C(F)(F)F)ccn2)nc(-c2ccc(NC3CCN(C(N)=O)CC3)nc2)c1 [Example 7, 4-(4-Methyl-6-(4-(trifluoromethyl)pyridin-2-ylamino)-2,3′-bipyridin-6′-ylamino)piperidine-1-carboxamide] | 4 |
| Cc1cc(Nc2cc(C(F)(F)F)ccn2)nc(-c2ccc(NC3CCN(C(=O)Cc4cccc(C#N)c4)CC3)nc2)c1 [Example 4-82] | 3 |
| Cc1cc(Nc2cc(C(F)(F)F)ccn2)nc(-c2ccc(NC3CCN(C(=O)c4cccc(-c5cn[nH]c5)c4)CC3)nc2)c1 [Example 4-9] | 12 |
| Cc1cc(Nc2cc(C(F)(F)F)ccn2)nc(-c2ccc(NC3CCN(C(=O)Cc4n[nH]c5ccccc45)CC3)nc2)c1 [Example 4-8] | 7 |
| Cc1cc(Nc2cc(C(F)(F)F)ccn2)nc(-c2ccc(NC3CCC(C(=O)O)C(C)C3)nc2)c1 (single isomer, unassigned) [Example 3-3] | 1 |
| Cc1cc(Nc2cc(C(F)(F)F)ccn2)nc(-c2ccc(N3CCCC(C(=O)N4CCCC(C(=O)O)C4)C3)nc2)c1 (stereo not shown) [Example 2-27] | 2 |
| CCCOC(=O)[C@H]1CC[C@H](C(C)(O)c2ccc(-c3cc(C)cc(Nc4cc(C(F)F)ccn4)n3)cn2)CC1 (single isomer, unassigned) [Example 19-2, propyl trans-4-[(1R or 1S)-1-(6-{[4-(difluoromethyl)pyridin-2-yl]amino}-4-methyl-2,3′-bipyridin-6′-yl)-1-hydroxyethyl] cyclohexanecarboxylate] | 32 |
| Cc1cc(Nc2cc(C(F)F)ccn2)nc(-c2ccc(C3(O)CCC3)nc2)c1 [Example 1-13] | 5 |
| Cc1cc(Nc2cc(C(F)(F)F)ccn2)nc(-c2ccc(C[C@H]3CC[C@@H](C(=O)O)CC3)nc2)c1 [Example 10 cis isomer, cis-4-[(4-methyl-6-{[4-(trifluoromethyl)pyridin-2-yl]amino}-2,3′-bipyridin-6′-yl)methyl]cyclohexanecarboxylic acid] | 1 |
| Cc1cc(Nc2cc(C(F)(F)F)ccn2)nc(-c2ccc(NC3CCN(C(=O)c4cc5ccccc5n4C)CC3)nc2)c1 [Example 4-113] | 26 |
| Cc1cc(Nc2cc(C(F)F)ccn2)nc(-c2ccc(C(C)(O)C3CCC(C(=O)O)C(C)C3)nc2)c1 (stereo not shown) [Example 1-35] | < 0.5 |
| Cc1cc(Nc2cc(C(F)(F)F)ccn2)nc(-c2ccc(NC3CCNC3=O)nc2)c1 (stereo not shown) [Example 2-16] | 6 |
| Cc1cc(Nc2cc(C(F)(F)F)ccn2)nc(-c2ccc(NC3CCN(C(=O)Cc4cccc(O)c4)CC3)nc2)c1 [Example 4-83] | 3 |
| Cc1cc(Nc2cc(C(F)(F)F)ccn2)nc(-c2ccc(NC3CCN(C(=O)c4cccc5ccccc45)CC3)nc2)c1 [Example 4-59] | 61 |
| Cc1cc(Nc2cc(C(F)(F)F)ccn2)nc(-c2ccc(NC3CCN(C(=O)CCc4nc5ccccc5s4)CC3)nc2)c1 [Example 4-121] | 5 |
| COC(=O)C1CCC(C(O)(c2ccc(-c3cc(C)cc(Nc4cc(C(F)(F)F)ccn4)n3)cn2)C2CC2)CC1 (stereo not shown) [Example 1-17] | 16 |
| Cc1cc(Nc2cc(C(F)(F)F)ccn2)nc(-c2ccc(N3CCC(C4CCCCC4C(=O)O)CC3)nc2)c1 (stereo not shown) [Example 3-1] | 3 |
| Cc1cc(Nc2cc(C(F)(F)F)ccn2)nc(-c2ccc(NC3CCN(C(=O)c4ccc(F)c(O)c4)CC3)nc2)c1 [Example 4-115] | 4 |

| Compound | IC50 [nM] |
| --- | --- |
| Cc1cc(Nc2cc(C(F)(F)F)ccn2)nc(-c2ccc(N3CC[C@H](NC(=O)c4ccc5cc[nH]c5c4)C3)nc2)c1 [Example 6-1] | 17 |
| CCOC(=O)C1CCC(O)(c2ccc(-c3cc(C)cc(Nc4cc(C(F)(F)F)ccn4)n3)cn2)CC1 (stereo not shown) [Example 1-11] | 47 |
| CCCCOC(=O)[C@H]1CC[C@H](C(C)(O)c2ccc(-c3cc(C)cc(Nc4cc(C(F)F)ccn4)n3)cn2)CC1 (single isomer, unassigned) [Example 19-4, butyl trans-4-[(1R or 1S)-1-(6-{[4-(difluoromethyl)pyridin-2-yl]amino}-4-methyl-2,3′-bipyridin-6′-yl)-1-hydroxyethyl] cyclohexanecarboxylate] | 65 |
| Cc1cc(Nc2cc(C(F)(F)F)ccn2)nc(-c2ccc(NC3CCC(C(=O)O)C(C)C3)nc2)c1 (single isomer, unassigned) [Example 3-2] | < 0.5 |
| Cc1cc(Nc2cc(C(F)(F)F)ccn2)nc(-c2ccc(NC3CCN(C(=O)Cc4cccc5ccccc45)CC3)nc2)c1 [Example 4-52] | 53 |
| Cc1cc(Nc2cc(C(F)(F)F)ccn2)nc(-c2ccc(NC3CCC(C(=O)O)C(C)(C)C3)nc2)c1 (single isomer, unassigned) [Example 3-4] | < 0.5 |
| Cc1cc(Nc2cc(C(F)(F)F)ccn2)nc(-c2ccc(NC3CCN(C(=O)c4ccc5cccnc5n4)CC3)nc2)c1 [Example 4-44] | < 0.5 |
| Cc1cc(Nc2cc(C(F)(F)F)ccn2)nc(-c2ccc(NC3CCN(C(=O)c4ccc5nc(C)c(C)nc5c4)CC3)nc2)c1 [Example 4-97] | 2 |
| Cc1cc(Nc2cc(C(F)(F)F)ccn2)nc(-c2ccc(NC3CCN(C(=O)c4ccc5ccccc5c4)CC3)nc2)c1 [Example 4-49] | 19 |
| Cc1cc(Nc2cc(C(F)(F)F)ccn2)nc(-c2ccc(NC3CCN(C(=O)c4ccc5[nH]ncc5c4)CC3)nc2)c1 [Example 4-98] | 5 |
| Cc1cc(Nc2cc(C(F)(F)F)ccn2)nc(-c2ccc(N3CCC(NC(=O)OC(C)(C)C)C3)nc2)c1 (stereo not shown) [Example 2-3] | 248 |
| Cc1cc(Nc2cc(C(F)(F)F)ccn2)nc(-c2ccc(N3CCCC(NC(=O)c4ccc5cc[nH]c5c4)C3)nc2)c1 (stereo not shown) [Example 4-17] | 32 |
| Cc1cc(Nc2cc(C(F)(F)F)ccn2)nc(-c2ccc(NC3CCN(C(=O)OC(C)(C)C)CC3)nc2)c1 [Example 2-4] | 91 |
| Cc1cc(Nc2cc(C(F)(F)F)ccn2)nc(-c2ccc(C3(O)CCN(C(=O)c4ccc5cc[nH]c5c4)CC3)nc2)c1 [Example 9-2] | 13 |
| Cc1cc(Nc2cc(C(F)(F)F)ccn2)nc(-c2ccc(C3(O)CCC(C(=O)O)C(C)(C)C3)nc2)c1 (stereo not shown) [Example 1-23] | 29 |
| Cc1cc(Nc2cc(C(F)(F)F)ccn2)nc(-c2ccc(NC3CCN(C(=O)c4ccc5ncccc5c4)CC3)nc2)c1 [Example 4-111] | 3 |
| Cc1cc(Nc2cc(C(F)(F)F)ccn2)nc(-c2ccc(NC3CCNC3=O)nc2)c1 (stereo not shown) [Example 2-9] | 4 |
| Cc1cc(Nc2cc(C(F)(F)F)ccn2)nc(-c2ccc(N3CCCC(NC(N)=O)C3)nc2)c1 (stereo not shown) [Example 7-1] | 5 |
| Cc1cc(Nc2cc(C(F)F)ccn2)nc(-c2ccc(C(C)(O)[C@H]3CC[C@H](C(=O)OC(C)OC(=O)OC4CCCCC4)CC3)nc2)c1 (single isomer, unassigned) [Example 20-4, 1-{[(cyclohexyloxy)carbonyl]oxy}ethyl trans-4-[(1R or 1S)-1-(6-{[4-(difluoromethyl)pyridin-2-yl]amino}-4-methyl-2,3′-bipyridin-6′-yl)-1-hydroxyethyl] cyclohexanecarboxylate] | 510 |
| COc1ccc2cc(C(C)C(=O)N3CCC(Nc4ccc(-c5cc(C)cc(Nc6cc(C(F)(F)F)ccn6)n5)cn4)CC3)ccc2c1 (stereo not shown) [Example 4-55] | 223 |
| Cc1cc(Nc2cc(C(F)(F)F)ccn2)nc(-c2ccc(NC3CCN(C(=O)c4cccc(Oc5ccccc5)c4)CC3)nc2)c1 [Example 4-50] | 97 |
| Cc1cc(Nc2cc(C(F)(F)F)ccn2)nc(-c2ccc(NC3CCN(C(=O)c4cnc5ccc(F)cc5c4)CC3)nc2)c1 [Example 4, (6-Fluoroquinolin-3-yl)(4-(4-methyl-6-(4-(trifluoromethyl)pyridin-2-ylamino)-2,3′-bipyridin-6′-ylamino)piperidin-1-yl)methanone] | 8 |
| Cc1cc(Nc2cc(C(F)(F)F)ccn2)nc(-c2ccc(C3(O)CCN(C(=O)c4[nH]c5ccccc5c4C)CC3)nc2)c1 [Example 9-5] | 112 |
| COc1cccc(C(=O)N2CCC(Nc3ccc(-c4cc(C)cc(Nc5cc(C(F)(F)F)ccn5)n4)cn3)CC2)c1 [Example 4-109] | 6 |
